Patent US4224333A, “Antihypertensive 2H-indol-2-ones” (Roussel Uclaf, priority 1978, dated 1980)
Structures can show the parent of a compound that is named as a salt.

Key:
[1] = tested on: male rats of the Sprague Dawley S.P.F. strain; assay: Hypotensive activity (carotid arterial pressure) in anesthetized rats, intravenous; format: in vivo, rat; conditions: 1 mg/kg i.v., hydrochloride form
Description: The hypotensive activity was determined on groups of male rats of the Sprague Dawley S.P.F. strain weighing about 300 g which had been anesthesized with an intraveinous administration of 50 mg/kg of nembutal. The test products in their hydrochloride form were administered intraveinously in the jugular vein and the carotidiene arterial pressure was measured before and after the said administration. The variations between the initial arterial pressure and the pressure after the administration was determined as well as the time of duration of the activity and the results are reported in Table I.

[2] = tested on: spontaneous hypertendus male rats of the Okamto strain; assay: Antihypertensive activity in spontaneously hypertensive rats, oral (tail arterial pressure); format: in vivo, rat; conditions: 50 mg/kg oral, hydrochloride form; for % Variation of arterial pressure 1 hour after administration: 1 h on first day; for % Variation of arterial pressure 4 hours after administration: 4 h on first day; for % Variation of arterial pressure, 10th day: 24 h after last administration
Description: The arterial pressure was measured before and after the said administration on the rat's tail with a pneumatic collar connected to an electronic translator of pressure and the results of Table II compare the initial arterial pressure with the arterial pressure 1,4 hours of the first day and 24 hours after the last administration.

[3] = Acute toxicity (LD50) in mice, intraperitoneal; conditions: mouse, in vivo, ip, suspension in carboxymethyl cellulose, observed one week
Description: The acute toxicity of the products was determined on groups of 10 mice weighing between 18 and 22 g and the products were intraperitoneally administered in a suspension in carboxymethyl cellulose.

[4] = test was for 3 days administration

## O=C1Nc2ccccc2C1C1CCN(C[C@H](O)[C@H]2COc3ccccc3O2)CC1 (relative stereo) [Example 2, (dl) erythro 1,3-dihydro-3-{1-[2-(2,3-dihydro-1,4-benzodioxin-2-yl)-2-hydroxyethyl]-piperidin-4-yl}-2H-indol-2-one hydrochloride]
[1]; at 5 min
  % change in arterial pressure: -30%
[1]; at 60 min
  % change in arterial pressure: -20%
[2]; 9 days administration
  % Variation of arterial pressure 1 hour after administration: -23%
  % Variation of arterial pressure 4 hours after administration: -22%
  % Variation of arterial pressure, 10th day: -9%
[3]
  LD50 at 168 h: ~125 mg/kg

## O=C1Nc2ccccc2C1C1CCN(C[C@H](O)[C@@H]2COc3ccccc3O2)CC1 (relative stereo) [Example 3, (dl) threo 1,3-dihydro-3-{1-[2-(2,3-dihydro-1,4-benzodioxin-2-yl)-2-hydroxyethyl]-piperidin-4-yl}-2H-indol-2-one hydrochloride]
[1]; at 1 min
  % change in arterial pressure: -20%
[1]; at 15 min
  % change in arterial pressure: -10%
[3]
  LD50 at 168 h: ~125 mg/kg

## CN1C(=O)C(C2CCN(C[C@H](O)[C@H]3COc4ccccc4O3)CC2)c2ccccc21 (relative stereo) [Example 4, (dl) erythro 1,3-dihydro-3-{1-[2-(2,3-dihydro-1,4-benzodioxin-2-yl)-2-hydroxyethyl]-piperidin-4-yl}-1-methyl-2H-indol-2-one hydrochloride]
[1]; at 1 min
  % change in arterial pressure: -28%
[1]; at 5 min
  % change in arterial pressure: -23%
[1]; at 10 min
  % change in arterial pressure: -26%
[1]; at 30 min
  % change in arterial pressure: -24%
[2]; [4]
  % Variation of arterial pressure 1 hour after administration: -23%
  % Variation of arterial pressure 4 hours after administration: -31%
  % Variation of arterial pressure, 10th day: -16%
[3]
  LD50 at 168 h: ~200 mg/kg

## Cl.O=C1Nc2ccccc2C1C1CCN(CC(O)C2COc3ccccc3O2)CC1 (centres unmarked) [Example 1, 3-{1-[2-(2,3-dihydro-1,4-benzodioxin-2-yl)-2-hydroxyethyl]-piperidin-4-yl}-1,3-dihydro-2H-indol-2-one hydrochloride]
[1]; at 1 min
  % change in arterial pressure: -20%
[1]; at 45 min
  % change in arterial pressure: -10%
[2]; 9 days administration
  % Variation of arterial pressure 1 hour after administration: -29%
  % Variation of arterial pressure 4 hours after administration: -27%
  % Variation of arterial pressure, 10th day: -8%
[3]
  LD50 at 168 h: ~150 mg/kg
